According to US20250194596A1 (priority 2023, published 2025):
Structures can show the parent of a compound that is named as a salt. Where two headings read alike, the source gives them in different places.

Assays:
CLas [1] = assay type: in vivo, Candidatus Liberibacter asianticum
[2] = on human beings and animals; cited from earlier work
CLas [3] = assay type: in vivo, Candidatus Liberibacter asianticum; conditions: injection into the tree trunks for one week
[4] = assay type: physicochemical; conditions: 10 mg/mL in water

Compound: CC1(C)S[C@@H]2[C@H](NC(=O)[C@H](N)c3ccccc3)C(=O)N2[C@H]1C(=O)O [ampicillin, reference compound]
- CLas content reduced (CLas [1]; 12 mg/mL, mesophyll injection, 3 d): more than 80%

Compound: rhamnolipid
- toxic or side effects [2]: no toxic or side effects

Compound: O=C(/C=C/c1ccc(O)c(O)c1)O[C@@H]1C[C@](O)(C(=O)O)C[C@@H](O)[C@H]1O [chlorogenic acid]
- CLas content reduced (CLas [1]; 0.5 mg/mL chlorogenic acid, mesophyll injection, 3 d): more than 60%
- inhibitory effect on CLas (CLas [1]; 10 mg/mL, mesophyll injection, 3 d): equivalent to that of 5 mg/mL
- antibacterial effect on CLas (CLas [1]; concentrations below 0.5 mg/mL, mesophyll injection, 3 d): not obvious
- concentration achieving a significant inhibitory effect on CLas (CLas [1]; in vivo): not less than 5 mg/mL
- reduction of CLas content (CLas [1]; injection into the mesophyll for 3 days): about 60%
- minimum inhibitory concentration (MIC) of chlorogenic acid for CLas (CLas [1]; mesophyll injection of HLB-infected leaves, CLas content after 3 d): 500 µg/mL
- reduction of CLas content (CLas [3]): about 60%
- appearance of solution [4]: turbid

Compound: CN(C)[C@@H]1C(O)=C(C(N)=O)C(=O)[C@@]2(O)C(O)=C3C(=O)c4c(O)cccc4[C@@](C)(O)[C@H]3[C@H](O)[C@@H]12 [oxytetracycline hydrochloride, reference compound]
- reduction of CLas content (CLas [1]; 20 mg/mL, mesophyll injection, 3 d): about 20%
